{
  "source": "patent US20240390434A1",
  "about": "“PROBIOTIC ENHANCERS AND USES THEREOF” (Blis Technologies Limited, priority 2021, published 2024)",
  "test_system": "indicator strains",
  "assay": "Deferred antagonism assay, producer S. salivarius K12: total strains inhibited",
  "type": "cell-based",
  "conditions": "K12",
  "protocol": "1-2 producer strain colonies were transferred from a stock plate into 900 μL of suspension solution using a fresh cotton swab. Following this, suspensions were vortexed, and a sample was inoculated onto solid culture media using a fresh cotton swab. The inoculation was a streak that runs diametrically across the agar plate in a 1.5 cm wide strip. The plate was then incubated. Following incubation all visible colonies were removed by swabbing them from the agar surface. The plates were then treated with chloroform by dispensing 2 ml of chloroform onto 4 cm×4 cm piece of cloth and sealing the inverted agar plate on top for 30 minutes. The plates were then air dried for 30 minutes following chloroforming. 1-2 indicator strain colonies were then transferred from a stock plate into complementary suspension solution. The suspensions were then vortexed, and a sample was inoculated onto the same agar surface. These samples were streaked in a perpendicular direction to the initial producer streak.\nEach indicator streak was prepared with fresh a suspension containing cells from a corresponding stock plate containing the indicator strain of interest. Indicator strains suspension samples were transferred using a fresh cotton swab. Results were measured by qualitatively reviewing the subsequent (if any) sizes of the zones of inhibition (ZOI) of indicator strain colony growth. A positive result is when there is a distinctive reduction or complete inhibition of indicator colony growth on the culture medium.\nCABCa agar plates containing various concentrations of saccharide were prepared according to the methods described in Method 1. Producer strains were transferred from stock agar plates into 900 μL THB using a fresh cotton swab. A plastic spread plater was cut to approximately 1.2 cm width and then dipped into ethanol and left to air dry to ensure sterility. A 100 μL sample of the producer strain suspension was then dispensed onto the agar surface in a straight line running diametrically across the agar surface in (approximately) 20 μL spots. The spots were spaced approximately 1.5 cm apart from each other. The plastic spreader was then used to evenly distribute the spots across the agar surface in a 1.5 cm wide strip. This step was taken to ensure an even producer streak was inoculated onto the agar surface and provided an approximate measure of the initial inoculum concentration. Separate plastic spreaders were used for samples containing different producer strains. The samples were left to soak into the agar surface until there was no visible liquid remaining on the agar surface (approximately 20 minutes). Following producer streak preparations, the deferred antagonism assay protocol was followed as per Method 2. Results were recorded by measuring the size of the zone of inhibition (ZOI) in mm.\nA dose response assay was carried out according to method 3 above, except a 1.2 cm streak was used. For the individual saccharide testing the pH of the producer streak was adjusted after the growth of producer to change the acidic conditions.\nA deferred antagonism assay was conducted using K12 or M18 raw ingredient suspended in Todd Hewitt broth (THB). This was spread as a 1.2 cm streak containing approximately 1-2×10^6 cfu down the middle of a CABCa control or CABCa galactose supplemented test plate. After 18 hrs growth at 37° C. with 5% CO2, bacterial growth was removed, and the pH of the agar in the initial streak was measured and adjusted to a pH of 6.5-7.5 using 0.5M sodium carbonate pH11 before sterilizing the agar surface using chloroform vapor. Bacterial test strains were suspended in i-THB before being swabbed across the plates perpendicular to the initial streak. Plates were incubated for a further 18 hrs incubation at 37° C. with 5% CO2 before measuring (mm) any zones of inhibition for each test strain, […]",
  "data": [
    {"smiles": "O=C(CO)[C@@H](O)[C@H](O)[C@H](O)CO", "note": "[Fructose, D-(−) Fructose, reference compound]", "values": [
      {"measurement": "Total strains inhibited", "setting": "saccharide 3.3% w/v", "result": "0/3"},
      {"measurement": "Total strains inhibited", "setting": "saccharide range 0.83%-3.3% w/v", "result": "0/3"}
    ]}
  ]
}
